Values of other authors in patent US20030235623A1, “Aqueous disinfecting compositions with rapid bactericidal effect” (priority 2002, published 2003).

Test system: some bacteria

OO [Hydrogen peroxide]
concentration known to inhibit the growth of some bacteria: 25 mg/L
